Values after ≈ are worked out from the molar mass of the structure shown.
What was measured:
Experiment in all cases: microbe, parasite or virus in culture
M. bovis BCG = format: cell-based; details: Mycobacterium tuberculosis variant bovis BCG
M. tuberculosis H37Rv = format: cell-based; details: Mycobacterium tuberculosis
M. smegmatis mc^2155 = format: cell-based, Mycobacterium smegmatis; details: Mycolicibacterium smegmatis

NNC(=O)c1ccncc1 [Isoniazid, isoniazid]
MIC (M. bovis BCG): 0.05 µg/mL (≈ 0.365 µM)
MIC (M. tuberculosis H37Rv): 0.05 µg/mL (≈ 0.365 µM)
MIC (M. smegmatis mc^2155): 16 µg/mL (≈ 117 µM)

Reference: patent US9128088B2 (priority 2008, dated 2015)
